pIC50: −log10 of the molar value. Where two headings read alike, the source gives them in different places.
Experiments:
SOS1 and KRAS G12C = SOS1 and KRAS G12C (Homo sapiens (Human), UniProt Q07889); assay: KRAS::SOS1 AlphaScreen binding assay (KRAS G12C); conditions: average of at least two measurements
Method: (§1) Low IC50 values are indicative of high potency of the SOS1 inhibitor compound in this assay setting:
(§2) • GST-tagged SOS1 (564_1049_GST_TEV_ECO) produced in-house • 6xHis-Tev-K-RasG12D/G12C(1-169)Avi produced in-house • GDP (Sigma Cat No G7127) • AlphaLISA Glutathione Acceptor Beads (PerkinElmer, Cat No AL109) • AlphaScreen Streptavidin Donor Beads (PerkinElmer Cat No 6760002) • Assay plates: Proxiplate-384 PLUS, white (PerkinElmer, Cat No 6008289)
(§3) [formula] • KRAS::SOS1 GDP mix: • 7.5 nM (final assay concentration) K-RasG12C, 10 nM (final assay concentration) K-RasG12D, 10 μM (final assay concentration) GDP and 5 nM (final assay concentration) GST-SOS1 are mixed in assay buffer prior to use and kept at rt. Bead mix: • AlphaLISA Glutathione Acceptor Beads and AlphaScreen Streptavidin Donor Beads are mixed in the dark in assay buffer at a concentration of 10 μg/mL (final assay concentration) each prior to use and kept at rt.
(§4) Compounds are diluted to a final start concentration of 100 μM and are tested in duplicate. Assay-ready plates (ARPs) are generated using an Access Labcyte Workstation with a Labcyte Echo 550 or 555 acoustic dispenser. For compound a start concentration of 100 μM, 150 nL of compound solution is transferred per well in 11 concentrations in duplicate with serial 1:5 dilutions.
(§5) The assay is run using a fully automated robotic system in a darkened room below 100 Lux. 10 μL of KRAS::SOS1 GDP mix is added into columns 1-24 to the 150 nL of compound solution (final dilution in the assay 1:100, final DMSO concentration 1%).
(§6) After a 30 minute incubation time, 5 μL of bead mix is added into columns 1-23. Plates are kept at rt in a darkened incubator. After a further 60 minutes incubation, the signal is measured using a PerkinElmer Envision HTS Multilabel Reader using the AlphaScreen specifications from PerkinElmer. Each plate contains the following controls:
(§7) diluted DMSO+KRAS::SOS1 GDP mix+bead mix
(§8) diluted DMSO+KRAS::SOS1 GDP mix
(§9) Result calculation: IC50 values are calculated and analyzed using a 4 parametric logistic model.
(§10) Table 1: Inhibition values for KRAS G12C as well as for KRAS G12D. […] The value indicates an average value of at least two measurements.

P450 3A4 = P450 3A4 (Homo sapiens (Human), UniProt P08684); assay: Cytochrome P450 isoenzyme inhibition assay (P450 3A4, midazolam); format: in vitro ADME; conditions: human liver microsomes, Midazolam as substrate; read-out: CYP3A4 inhibition IC50
Method: For the following cytochrome P450 isoenzymes, these substrates and metabolic reactions are monitored: P450 3A4: hydroxylation of Midazolam (MDZ).
The final incubation volume contains TRIS buffer (0.1 M), MgCl2 (5 mM), a certain concentration of human liver microsomes dependent on the P450 isoenzyme measured (P450 3A4: 0.1 mg/ml) and a certain concentration of the individual substrate for each isoenzyme (P450 3A4: Midazolam 5 μM).
The effect of the test compound is determined at five different concentrations in duplicate (e.g. highest concentration 50 μM with subsequent serial 1:4 dilutions) or without test compound (high control). Following a short preincubation period, reactions are started with the cofactor (NADPH, 1 mM) and stopped by cooling the incubation down to 8° C. and subsequently by addition of one volume of ACN. An internal standard solution—usually the stable isotope of the formed metabolite—is added after quenching of incubations. Peak area analyte (=metabolite formed) and internal standard is determined by LC-MS/MS. The resulting peak area ratio analyte to internal standard in these incubations is compared to a control activity containing no test compound. Within each of the assay runs, the IC50 of a positive control inhibitor dependent on the P450 isoenzyme measured (P450 3A4: ketoconazole) is determined. The assay results are plotted against compound concentrations to calculated IC50 values (half maximal inhibitory concentrations) for inhibitory compounds utilizing Software IDBS E-WorkBook.
Table 4: Inhibition of P450 isoenzyme 3A^4.

[1] = tested on: ERK phosphorylation in NCI-H358 SOS2 KO cells (KRAS G12C); assay: Erk phosphorylation assay; format: cell-based, human; conditions: EGF stimulated, average of at least two measurements, read-out: pERK IC50
Method: Low IC50 values are indicative of high potency of the SOS1 inhibitor compounds in this assay setting.
ERK phosphorylation assays are performed using the following human cell line: • NCI-H358 SOS2 KO (Hofmann, Gmachl, Ramharter et al, Cancer Discov. 2021, 11(1):142-15): human lung cancer with a KRAS G12C mutation;
NCI-H358 SOS2 KO are seeded at 50000 cells per well in 60 μL of DMEM with 2% FBS, in Greiner TC 384 plates. The cells are incubated overnight in an incubator at 37° C. and 5% CO2 in a humidified atmosphere. 60 nL compound solution (10 mM DMSO stock solution) is then added using a Beckman Coulter Labcyte Echo 550 device. After 50 min incubation in the aforementioned incubator, 5 nl EGF are added to each well for a final concentration of approx. 8 ng/mL using a Beckman Coulter Labcyte Echo 550 device and cells are incubated for another 10-15 minutes before lysis. The medium is removed, and the cells are lysed by addition of 20 μL of 1.6-fold lysis buffer from the AlphaLISA SureFire Ultra pERK1/2 (Thr202/Tyr204) Assay Kit with added protease inhibitors. After 20 minutes of incubation at rt with shaking, 6 μL of each lysate sample is transferred to a 384-well Proxiplate and analyzed for pERK (Thr202/Tyr204) with the AlphaLISA SureFire Ultra pERK1/2 (Thr202/Tyr204) Assay Kit. 3 μL Acceptor Mix and 3 μL Donor Mix are added under subdued light and incubated for 2 h at rt in the dark, before the signal is measured on a Perkin Elmer Envision plate reader using 384 AlphaScreen settings for Proxiplates. Data are fitted by iterative calculation with variable hill slope. The sigmoidal curve slope is fitted using a default fitting curve to ascertain IC50 values.
Table 2: Erk Phosphorylation assay. The value indicates an average value of at least two measurements.

SOS1 and KRAS G12D = SOS1 and KRAS G12D (Homo sapiens (Human), UniProt Q07889); assay: KRAS::SOS1 AlphaScreen binding assay (KRAS G12D); conditions: average of at least two measurements
Method: as §1, §2, §3, §4, §5, §6, §7, §8, §9, §10

human hepatocytes = assay: Metabolic stability in human hepatocytes; conditions: 1 μM test compound, 50% human serum, percentage of liver blood flow
Method: The metabolic degradation of a test compound is performed with hepatocytes in suspension. After recovery from cryopreservation, human hepatocytes are diluted in Dulbecco's modified eagle medium (supplemented with 3.5 μg glucagon/500 mL, 2.5 mg insulin/500 mL, 3.75 mg hydrocortisone/500 mL, 50% human serum) to obtain a final cell density of 1.0×10^6 cells/mL. Following a preincubation in a cell culture incubator (37° C., 10% CO2), test compound dissolved in DMSO is mixed with the hepatocyte suspension, resulting in a final test compound concentration of 1 μM and a final DMSO concentration of 0.05%.
The cell suspension is incubated at 37° C. (cell culture incubator, horizontal shaker) and samples are removed from the incubation after 0, 0.5, 1, 2, 4 and 6 hours. Samples are quenched with acetonitrile (containing internal standard) and pelleted by centrifugation. The supernatant is transferred to a deep-well plate and prepared for analysis of decline of parent compound by HPLC-MS/MS.
The percentage of remaining test compound is calculated using the peak area ratio (test compound/internal standard) of each incubation time point relative to the time point 0 peak area ratio. The log-transformed data are plotted versus incubation time, and the absolute value of the slope obtained by linear regression analysis is used to estimate in vitro half-life (T1/2).
CL_[sequence]_IN VIVO[mL/min/kg]=(CL_[sequence][μL/min/10^6cells]×hepatocellularity[10^6cells/g liver]×liver factor[g/kg body weight])/1000
Hepatic in vivo blood clearance (CL) is predicted according to the well-stirred liver model considering an average liver blood flow (QH) of 20.7 mL/min/kg:
CL[mL/min/kg]=CL_[sequence]_IN VIVO[mL/min/kg]×hepatic blood flow[mL/min/kg]/(CL_[sequence]_IN VIVO[mL/min/kg]+hepatic blood flow[mL/min/kg])
Results are expressed as percentage of hepatic blood flow:
QH[%]=CL[mL/min/kg]/hepatic blood flow[mL/min/kg])

CYP3A4 = CYP3A4 (Homo sapiens (Human), UniProt P08684); assay: Mechanism-based inhibition of CYP3A4 assay (MBI 3A4); format: in vitro ADME; conditions: human, human liver microsomes, probe midazolam 15 μM (hydroxy-midazolam formation), midazolam substrate, hydroxy-midazolam formation after 30 min preincubation relative to 0 min, read-out: MBI inhibition % ctrl. [%] with MDZ
Method: Mechanism-Based Inhibition of CYP3A4 assay (MBI 3A4): The mechanism-based inhibition towards CYP3A4 is assayed in human liver microsomes with midazolam as substrate. The test compounds and water control (wells w/o test compound) are preincubated in presence of NADPH (1 mM) with human liver microsomes (0.2 mg/mL) at a concentration of 0, 5 and 25 μM for 0, 10 and 30 min. After preincubation, the incubate is diluted 1:10 (to 0.02 mg/mL) and the substrate midazolam (15 μM) is added for the main incubation (10 min). The main incubation is quenched with ACN and the formation of hydroxy-midazolam is quantified via LC/MS-MS. The formation of hydroxy-midazolam from the 30 min preincubation relative to the formation from the 0 min preincubation is used as a readout. Values of less than 100% mean that the substrate midazolam is metabolized to a lower extent upon 30 min preincubation compared to 0 min preincubation. In general, low effects upon 30 min preincubation are desired (corresponding to values close to 100%/not different to the values determined with water control).
Table 5: Mechanism-based inhibition of P450 isoenzyme 3A4 with midazolam as substrate.

[2] = Homo sapiens, NCI-H358, NCI-H358 SOS2 KO cells

SOS1 and KRAS G12C, sequence (Q07889 564-1049, stated change not applied): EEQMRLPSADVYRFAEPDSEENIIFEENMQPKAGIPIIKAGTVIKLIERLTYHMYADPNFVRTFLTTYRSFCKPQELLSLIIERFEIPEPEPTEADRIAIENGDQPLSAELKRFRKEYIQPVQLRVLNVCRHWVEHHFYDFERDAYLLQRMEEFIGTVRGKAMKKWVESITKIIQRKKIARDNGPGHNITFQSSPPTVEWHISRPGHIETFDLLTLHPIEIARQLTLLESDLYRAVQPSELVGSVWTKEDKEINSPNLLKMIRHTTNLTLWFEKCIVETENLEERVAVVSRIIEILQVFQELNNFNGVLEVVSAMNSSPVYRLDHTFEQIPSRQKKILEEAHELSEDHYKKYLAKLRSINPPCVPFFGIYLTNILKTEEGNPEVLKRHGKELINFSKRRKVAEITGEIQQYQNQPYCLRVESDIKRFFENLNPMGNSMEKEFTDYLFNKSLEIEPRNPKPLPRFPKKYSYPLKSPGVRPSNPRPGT
SOS1 and KRAS G12D, sequence (Q07889 564-1049, stated change not applied): as above
P450 3A4, sequence (P08684 whole entry): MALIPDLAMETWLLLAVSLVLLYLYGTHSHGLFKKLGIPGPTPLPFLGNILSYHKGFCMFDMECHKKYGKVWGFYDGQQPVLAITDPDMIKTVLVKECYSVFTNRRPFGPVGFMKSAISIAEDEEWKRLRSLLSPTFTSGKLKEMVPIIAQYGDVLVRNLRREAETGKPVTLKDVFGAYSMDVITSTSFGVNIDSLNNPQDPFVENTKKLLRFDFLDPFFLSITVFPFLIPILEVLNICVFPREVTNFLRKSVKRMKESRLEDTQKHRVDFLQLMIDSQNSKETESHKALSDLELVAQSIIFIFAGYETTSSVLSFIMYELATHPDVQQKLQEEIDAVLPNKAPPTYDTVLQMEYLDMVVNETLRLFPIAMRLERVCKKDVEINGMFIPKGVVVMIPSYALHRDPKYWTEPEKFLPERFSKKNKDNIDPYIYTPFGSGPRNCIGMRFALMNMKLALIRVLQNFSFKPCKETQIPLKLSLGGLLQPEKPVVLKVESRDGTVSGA
CYP3A4, sequence (P08684 whole entry): as above

Compound | IC50 (SOS1 and KRAS G12C) [nM] | pIC50 (P450 3A4) | pIC50 [1, 2] | IC50 (SOS1 and KRAS G12D) [nM] | Hepatic clearance - QH[%] in human hepatocytes (human hepatocytes) [%] | inhibition at 30 min (CYP3A4) [%] | pIC50 ([1]; NCI-H358 SOS2 KO cells)
C[C@@H](NC(=O)c1cc(N2CCC(N3CC[C@@H](CO)C3)CC2)c2ncnn2c1)c1cccc(C(F)(F)F)c1F [Example E27] | 77 | < 4.30 | 7.14 | 73 | 9 | 90 | 
C[C@@H](NC(=O)c1cc(C2=CCC(N3CCC[C@H](O)C3)CC2)c2ncnn2c1)c1cccc(C(F)F)c1F (stereo partly drawn) [Example E63] | 31 | < 4.30 | 7.05 | 27 | 23 | 94 | 
Cc1nnc2c(N3CCC4(CCCN4C)CC3)cc(C(=O)N[C@H](C)c3cccc(C(F)(F)F)c3F)cn12 [Example E79] | 20 | < 4.30 | 6.97 | 14 | 8 | 90 | 
C[C@@H](O)CNC1CCN(c2cc(C(=O)N[C@H](C)c3cccc(C(F)(F)F)c3F)cn3ncnc23)CC1 [Example E39] | 53 | < 4.30 | 6.60 | 54 | 43 | 75 | 
C[C@@H](NC(=O)c1cc(N2CCC(N3CC[C@@H](CO)C3)CC2)c2ncnn2c1)c1cccc(C(C)(F)F)c1F [Example E73] | 64 | < 4.30 | 6.87 | 64 | 24 | 103 | 
C[C@@H](NC(=O)c1cc([C@]2(O)CC[C@@H](N3CC[C@@H](F)C3)CC2)c2ncnn2c1)c1cccc(C(F)F)c1F [Example E65] | 90 | < 4.30 | 6.78 | 93 | 38 | 102 | 
C[C@@H](NC(=O)c1cc(N2CCC(N3C[C@@H](O)C4(CC4)C3)CC2)c2ncnn2c1)c1cccc(C(F)(F)F)c1F [Example E30] | 59 | < 4.30 | 6.53 | 51 | 18 | 103 | 
C[C@@H](NC(=O)c1cc(N2CCC(N3CCCC(O)CC3)CC2)c2ncnn2c1)c1cccc(C(F)(F)F)c1F (single isomer, unassigned) [Example E43a] | 42 | < 4.30 |  | 40 | 25 | 91 | 7.34
C[C@@H](NC(=O)c1cc(N2CCC(N3C[C@@H](O)[C@@H]3C)CC2)c2ncnn2c1)c1cccc(C(F)(F)F)c1F [Example E32] | 44 | < 4.30 | 6.57 | 43 | 23 | 92 | 
C[C@@H](NC(=O)c1cc([C@H]2CC[C@H](N3CC[C@H](O)C3)CC2)c2ncnn2c1)c1cccc(C(F)(F)F)c1F [Example E69] | 28 | < 4.30 | 6.66 | 23 | <4 | 85 | 
C[C@@H](NC(=O)c1cc(N2CCC(N3C[C@H](O)C4(CC4)C3)CC2)c2ncnn2c1)c1cccc(C(F)F)c1F [Example E3] | 59 | < 4.30 | 6.81 | 50 | 24 | 94 | 
C[C@@H](NC(=O)c1cc(N2CCC3(CCCN3C)CC2)n2ncnc2c1)c1cccc(C(F)(F)F)c1F [Example E86] | 61 | < 4.30 | 6.76 | 44 | 15 | 96 | 

From US20250313560A1, “Novel bicyclic benzylamido pyridine derivatives as SOS1 inhibitors” (Boehringer Ingelheim International GmbH, priority 2024, published 2025)
